Usually IC50 stands for the concentration that inhibits the measured activity by half. A high value points to weaker potency in that assay. The term Papp A→B denotes the apparent permeability from the apical to the basolateral side of a cell layer. High values mean ready permeation, low ones poor permeation. Usually Papp B→A stands for the apparent permeability from the basolateral to the apical side of a cell layer. Broadly, the efflux ratio is a quotient of directional permeabilities that is used to spot active efflux. In general, AUC(0-t) refers to exposure summed from dosing to a finite time, without extrapolation to infinity. Lower therefore signals less exposure. The Vd is a proportionality between amount in the body and measured concentration, not a real space. Low readings indicate confinement near the circulation, high ones extensive tissue distribution. One may read the clearance as the volume of plasma or blood freed of the substance per unit of time. Read a low clearance as inefficient removal.

This is an account of results in publication PMC3402233 (International Journal of Pharmaceutics, 2012).

In one data set the target is P-gp (Homo sapiens, UniProt P08183). In words: P-gp inhibition: [3H]digoxin accumulation in MDCK-MDR1 cells. It counts as cell-based.
P-gp, sequence (P08183 whole entry): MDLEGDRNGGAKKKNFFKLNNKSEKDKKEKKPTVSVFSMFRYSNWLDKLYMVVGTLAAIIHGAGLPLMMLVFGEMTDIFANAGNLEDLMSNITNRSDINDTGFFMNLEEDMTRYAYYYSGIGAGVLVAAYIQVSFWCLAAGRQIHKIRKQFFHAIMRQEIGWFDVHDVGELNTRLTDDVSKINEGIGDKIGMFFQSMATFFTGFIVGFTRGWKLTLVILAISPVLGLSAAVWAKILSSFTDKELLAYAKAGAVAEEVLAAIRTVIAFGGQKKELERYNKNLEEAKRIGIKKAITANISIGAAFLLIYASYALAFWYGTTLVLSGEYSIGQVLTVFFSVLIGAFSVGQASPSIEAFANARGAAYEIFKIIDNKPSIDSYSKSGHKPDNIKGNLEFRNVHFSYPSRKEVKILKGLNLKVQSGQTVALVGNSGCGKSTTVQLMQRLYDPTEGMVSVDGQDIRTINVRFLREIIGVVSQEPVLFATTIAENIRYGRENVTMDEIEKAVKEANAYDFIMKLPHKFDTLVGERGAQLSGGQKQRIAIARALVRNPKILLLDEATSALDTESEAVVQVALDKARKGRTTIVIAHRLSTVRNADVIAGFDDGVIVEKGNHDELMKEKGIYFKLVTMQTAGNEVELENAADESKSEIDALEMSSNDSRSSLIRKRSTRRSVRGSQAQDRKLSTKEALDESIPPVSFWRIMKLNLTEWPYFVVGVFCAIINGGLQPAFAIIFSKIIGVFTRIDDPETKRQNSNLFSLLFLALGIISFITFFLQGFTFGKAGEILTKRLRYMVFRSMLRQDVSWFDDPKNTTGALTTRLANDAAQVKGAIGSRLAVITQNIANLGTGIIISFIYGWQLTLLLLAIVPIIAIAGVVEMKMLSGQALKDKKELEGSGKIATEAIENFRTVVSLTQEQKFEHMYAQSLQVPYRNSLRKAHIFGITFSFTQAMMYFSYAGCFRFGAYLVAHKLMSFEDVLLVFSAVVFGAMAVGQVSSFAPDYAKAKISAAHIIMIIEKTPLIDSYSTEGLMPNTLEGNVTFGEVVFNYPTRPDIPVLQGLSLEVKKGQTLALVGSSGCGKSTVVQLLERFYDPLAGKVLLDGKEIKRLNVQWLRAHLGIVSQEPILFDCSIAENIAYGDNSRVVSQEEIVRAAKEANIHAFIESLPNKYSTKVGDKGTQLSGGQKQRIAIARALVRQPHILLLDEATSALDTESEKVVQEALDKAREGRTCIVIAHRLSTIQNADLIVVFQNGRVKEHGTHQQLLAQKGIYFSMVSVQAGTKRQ
For data set [1], the target named is T1, Bcrp1 (Mus musculus, UniProt Q7TMS5).
T1 sequence (Q7TMS5 1-657): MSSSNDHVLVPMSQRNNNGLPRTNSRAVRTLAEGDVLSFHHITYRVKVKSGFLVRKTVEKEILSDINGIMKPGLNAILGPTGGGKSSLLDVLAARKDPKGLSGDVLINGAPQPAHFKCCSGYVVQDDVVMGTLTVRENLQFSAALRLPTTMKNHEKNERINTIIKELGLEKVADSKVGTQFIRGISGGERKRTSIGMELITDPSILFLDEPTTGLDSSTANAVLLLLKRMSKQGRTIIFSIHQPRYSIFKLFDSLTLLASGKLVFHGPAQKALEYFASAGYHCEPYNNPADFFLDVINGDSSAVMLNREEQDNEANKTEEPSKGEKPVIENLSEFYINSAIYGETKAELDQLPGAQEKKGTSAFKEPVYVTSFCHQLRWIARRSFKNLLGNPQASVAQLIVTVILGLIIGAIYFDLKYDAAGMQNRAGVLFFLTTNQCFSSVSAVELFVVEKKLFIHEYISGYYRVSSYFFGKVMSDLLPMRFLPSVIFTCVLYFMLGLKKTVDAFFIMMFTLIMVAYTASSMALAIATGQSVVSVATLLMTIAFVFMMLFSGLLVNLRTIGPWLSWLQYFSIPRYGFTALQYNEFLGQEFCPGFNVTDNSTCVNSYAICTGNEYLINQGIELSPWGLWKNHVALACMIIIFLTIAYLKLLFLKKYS
In words: Bcrp1 inhibition: [3H]abacavir accumulation in MDCK-Bcrp1 cells. The format is cell-based, murine. Particulars: 10, 25 and 50μM inhibitor.

Data set [2] deals with T1, Bcrp1. Briefly: Bi-directional transport across MDCKII-Bcrp1 cell monolayers. It counts as in vitro ADME, murine.
Data set [3] in a line: Brain accumulation and plasma pharmacokinetics of vandetanib in FVB mice. The format is in vivo, male FVB wild type mice.
A further data set deals with MDCK-WT cell monolayers. In words: Bi-directional transport across MDCKII-WT cell monolayers. It counts as in vitro ADME, canine. Particulars: 5μM vandetanib.
Test in data set [4]: as above
It counts as in vitro ADME, canine. The conditions noted are these: dog, MDCK.

The target in data set [5] is T2, P-gp (MDR1) (Homo sapiens, UniProt P08183). Briefly: Bi-directional transport across MDCKII-MDR1 cell monolayers. The format is in vitro ADME.
T2 sequence (P08183 whole entry): as the sequence (P08183 whole entry) above
The target of data set [6] is T2, P-gp (MDR1). Briefly: Cellular accumulation of vandetanib in MDCKII-MDR1 vs parent WT cells. The conditions noted are these: 100nM vandetanib, 60 min accumulation.
Setting [7] is: male, FVB, mouse, plasma, iv, 5 mg/kg.

Consider `CO[C@H]1C[C@@H]2CC[C@@H](C)[C@@](O)(O2)C(=O)C(=O)N2CCCC[C@H]2C(=O)O[C@H]([C@H](C)C[C@@H]2CC[C@@H](OCCO)[C@H](OC)C2)CC(=O)[C@H](C)/C=C(\C)[C@@H](O)[C@@H](OC)C(=O)[C@H](C)C[C@H](C)/C=C/C=C/C=C/1C` [everolimus], for which, at P-gp, the IC50 is 3 µM. The “Intracellular accumulation of [3H]abacavir in MDCK-Bcrp1 cells in the presence of inhibitor” value on Bcrp1 [1] is on record as “increased significantly”.

In the case of `CO[C@H]1C[C@@H]2CC[C@@H](C)[C@@](O)(O2)C(=O)C(=O)N2CCCC[C@H]2C(=O)O[C@H]([C@H](C)C[C@@H]2CC[C@@H](OC(=O)C(C)(CO)CO)[C@H](OC)C2)CC(=O)[C@H](C)/C=C(\C)[C@@H](O)[C@@H](OC)C(=O)[C@H](C)C[C@H](C)/C=C/C=C/C=C/1C` [temsirolimus], the IC50 on P-gp is 3.5 µM. At Bcrp1 [1], the “Intracellular accumulation of [3H]abacavir in MDCK-Bcrp1 cells in the presence of inhibitor” value was “increased significantly”.

With `COc1cc2c(Nc3ccc(Br)cc3F)ncnc2cc1OCC1CCN(C)CC1` [Vandetanib], at Bcrp1 [2], the Papp A→B at 240 min, 5 μM turned out to be 5.66 ± 1.26 ×10⁻⁶ cm/s; the Papp B→A at 240 min, 5 μM amounted to 42.3 ± 2.64 ×10⁻⁶ cm/s; the efflux ratio at 240 min, 5 μM came to 7.5. The same compound had an AUC(0-t) in data set [3] (male, FVB, mouse, brain, iv, 5 mg/kg) of 1050 ng·h/mL. Also, in data set [3] (setting [7]), the AUC(0-t) is 5090 ng·h/mL, the Vd was 1.3 L/kg and the clearance turned out to be 9.36 mL/min/kg. The “Brain concentrations compared with plasma concentrations” value in data set [3] (vandetanib 5mg/kg i.v. alone, 15, 30, 60 and 120min) is listed as “Brain concentrations were significantly lower than the plasma concentration”. In the data set on MDCK-WT cell monolayers, the “Directionality of vandetanib transport across WT cells” value is listed as “no directionality in transport”. In data set [4], the Papp A→B at 240 min, 5 μM was determined as 7.57 ± 0.52 ×10⁻⁶ cm/s; the Papp B→A at 240 min, 5 μM was determined as 8.08 ± 0.17 ×10⁻⁶ cm/s; the efflux ratio at 240 min, 5 μM was determined as 1.06. On P-gp (MDR1) [5] (5μM vandetanib), the “Directional flux of vandetanib across MDR1 transfected cells” value is listed as “No significant difference was observed in the directional flux”. Besides, on P-gp (MDR1) [5] (dog, MDCK-MDR1), the Papp A→B at 240 min, 5 μM was 5.73 ± 0.29 ×10⁻⁶ cm/s; the Papp B→A at 240 min, 5 μM stood at 4.66 ± 0.26 ×10⁻⁶ cm/s; the efflux ratio at 240 min, 5 μM worked out at 0.81. For the same compound, at P-gp (MDR1) [6], the “Vandetanib accumulation in MDR1 overexpressing cells versus WT cells” value is listed as “not statistically different from WT cells”.
